Results: patent US20220330549A1, “USE OF N-BENZYLBENZAMIDE-BASED COMPOUND AS HERBICIDE” (Northwest A&F University, priority 2020, published 2022)

Assays:
Assay type in all cases: in vivo
Digitaria sanguinalis [1] = assay: Herbicidal activity test for indoor pre-emergence soil treatment; design: key: 1-9 levels; higher = more weed remaining vs blank control; settings: 150 g a.i./ha, visual inspection 21 days after treatment
Outline: (§1)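 Pre-emergence test following NY/T 1155.3-2006: weed seeds were sown in moistened neutral sandy loam (≤2% organic matter) and covered with 0.5–2.0 cm of soil. After 24 h, the soil was sprayed with a 10% EC diluted in water at 150 g(a.i.)/ha. Damage was scored visually on a 1–9 scale at 21 days.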

Amaranthus retroflexus [2] = assay: as above; design: key: 1-9 levels; higher = more weed remaining vs blank control; settings: 150 g a.i./ha, visual inspection 21 days after treatment
Outline: as §1

Digitaria sanguinalis [3] = assay: Field test for weed control in a corn field; settings: for Post-emergence weed control effect, Digitaria sanguinalis: 150 g a.i./ha, after treatment
Outline: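 Field trial in a corn field following GB/T 17980.42-2000. Test compounds were formulated as 10% emulsifiable concentrates, diluted in water and sprayed post-emergence at 150 g(a.i.)/ha when corn had 2 to 5 leaves, with 4 replicates on 20 m^2 plots. Control of Digitaria sanguinalis was scored on a 1-9 scale based on weed damage relative to the untreated blank area.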

green bristlegrass [4] = assay: Field test for weed control in a corn field; settings: for Post-emergence weed control effect, Green bristlegrass: 150 g a.i./ha, after treatment
Outline: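 Post-emergence weed control was tested in a corn field following GB/T 17980.42-2000. When the corn had 2 leaves to 5 leaves after sowing, 10% emulsifiable concentrates diluted in water were sprayed at 150 g(a.i.)/ha on 20 m^2 plots, four replicates per treatment. Effects on green bristlegrass were scored on a 1-9 damage scale relative to the blank control area.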

Acalypha australis = assay: Field test for weed control in a corn field; settings: for Post-emergence weed control effect, Acalypha australis: 150 g a.i./ha, after treatment
Outline: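 Post-emergence field trial in a corn field following GB/T 17980.42-2000. Test compounds were formulated as 10% emulsifiable concentrates, diluted in water, and sprayed at 150 g(a.i.)/ha when corn had 2 to 5 leaves, with 4 replicates on 20 m^2 plots. Mesotrione 25% oil dispersion served as the control agent. Weed control was scored on a 1-9 scale.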

Solanum nigrum = assay: Field test for weed control in a corn field; settings: for Post-emergence weed control effect, Solanum nigrum: 150 g a.i./ha, 30 days after treatment
Outline: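 Post-emergence weed control was tested in a corn field following GB/T 17980.42-2000. Compounds were made into 10% emulsifiable concentrates, diluted in water and sprayed at 150 g(a.i.)/ha when corn had 2 to 5 leaves after sowing, in 20 m^2 plots with 4 replicates. Effects on Solanum nigrum were graded on a 1-9 scale relative to the blank control area.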

Portulaca oleracea = assay: Field test for weed control in a corn field; settings: for Post-emergence weed control effect, Portulaca oleracea: 150 g a.i./ha, after treatment
Outline: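 Field efficacy trial in corn following GB/T 17980.42-2000. Test compounds were prepared as 10% emulsifiable concentrates, diluted in water, and sprayed at 150 g(a.i.)/ha when corn had 2 to 5 leaves after sowing. Plots were 20 m^2 with 4 replicates per treatment. Herbicidal activity was scored on a 1-9 scale from weed damage symptoms and severity.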

nutgrass flatsedge = assay: Field test for weed control in a corn field; settings: for Post-emergence weed control effect, Nutgrass flatsedge: 150 g a.i./ha, after treatment
Outline: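 A corn field efficacy trial following GB/T 17980.42-2000 assessed post-emergence control of nutgrass flatsedge. Test compounds were formulated as 10% emulsifiable concentrates, diluted in water, and sprayed at 150 g(a.i.)/ha when the corn had 2 to 5 leaves. Each treatment had 4 replicates on 20 m^2 plots. Herbicidal activity was graded on a 1-9 scale by damage symptoms and severity.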

Barnyard grass [5] = assay: Field test for weed control in a corn field; settings: for Post-emergence weed control effect, Barnyard grass: 150 g a.i./ha, 30 days after treatment
Outline: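 Corn-field efficacy trial following GB/T 17980.42-2000. Test compounds were formulated as 10% emulsifiable concentrates, diluted in water and sprayed post-emergence at 150 g(a.i.)/ha when corn had 2 to 5 leaves. Each treatment was replicated 4 times on 20 m^2 plots. Barnyard grass control was rated on a 1-9 damage scale.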

goosegrass = assay: Field test for weed control in a corn field; settings: for Post-emergence weed control effect, Goose grass: 150 g a.i./ha, after treatment
Outline: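 Weed control efficacy against goosegrass was tested in a corn field following GB/T 17980.42-2000. Compounds formulated as 10% emulsifiable concentrates were diluted in water and sprayed post-emergence at 150 g(a.i.)/ha when corn had 2 to 5 leaves, with 4 replicates of 20 m^2 plots. Herbicidal activity was rated on a 1-9 scale by damage symptoms and severity.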

Convolvulus arvensis = assay: Field test for weed control in a corn field; settings: for Post-emergence weed control effect, Convolvulus arvensis: 150 g a.i./ha, after treatment
Outline: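 Field trial of weed control against Convolvulus arvensis in corn, run following GB/T 17980.42-2000. Test agents were formulated as 10% emulsifiable concentrates and sprayed in water at 150 g(a.i.)/ha when corn plants had 2 to 5 leaves. Each treatment was replicated 4 times on 20 m^2 plots, and 25% mesotrione oil dispersion served as the control agent.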

Amaranthus retroflexus [6] = assay: Field test for weed control in a corn field; settings: for Post-emergence weed control effect, Amaranthus retroflexus: 150 g a.i./ha, 30 days after treatment
Outline: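 Field efficacy trial in a corn field following GB/T 17980.42-2000. Test compounds were formulated as 10% emulsifiable concentrates, diluted in water and sprayed post-emergence when corn had 2 to 5 leaves. Each treatment covered 20 m^2 with 4 replicates. A 25% mesotrione oil dispersion served as control. Damage to Amaranthus retroflexus was rated on a 1-9 scale against untreated blank plots.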

Chenopodium album = assay: Field test for weed control in a corn field; settings: for Post-emergence weed control effect, Chenopodium album: 150 g a.i./ha, after treatment
Outline: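 A corn-field efficacy trial following GB/T 17980.42-2000 tested post-emergence control of Chenopodium album. Test compounds formulated as 10% emulsifiable concentrates were diluted in water and sprayed at 150 g(a.i.)/ha when the corn had 2 leaves to 5 leaves, on 20 m^2 plots with 4 replicates. Herbicidal activity was rated on a 1-9 scale by damage symptoms and severity.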

Humulus scandens [7] = assay: Herbicidal activity test for indoor pre-emergence soil treatment; settings: 150 g a.i./ha, visual inspection 21 days after treatment
Outline: as §1

green bristlegrass [8] = assay: as above; design: key: level 1-9; higher = more weed remaining vs blank control; settings: 150 g a.i./ha, visual inspection 21 days after treatment
Outline: as §1

Barnyard grass [9] = assay: as above; design: key: level 1-9; higher = more weed remaining vs blank control; settings: 150 g a.i./ha, visual inspection 21 days after treatment
Outline: as §1

Piemarker [10] = assay: as above; design: key: level 1-9; higher = more weed remaining vs blank control; settings: 150 g a.i./ha, visual inspection 21 days after treatment
Outline: as §1

Gramineae = assay: Post-emergence herbicidal activity test in a paddy field; design: key: level scale; higher level = more weed left vs blank control; settings: 150 g a.i./ha (penoxsulam control 250 g(a.i.)/h)
Outline: (§2)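 Efficacy was visually estimated 15 and 30 days after spraying, grading weed coverage relative to an untreated neighbouring plot (level 2 = 0 to 2.5%, level 9 = 67.6 to 100%). Treatments were 150 g(a.i.)/ha from 10% emulsifiable concentrates applied at the 4-5 leaf rice stage, four repeats of 50 m^2 each.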

Broadleaf weed = assay: as above; design: key: level scale; higher level = more weed left vs blank control; settings: 150 g a.i./ha (penoxsulam control 250 g(a.i.)/h)
Outline: as §2

Cyperaceae = assay: as above; design: key: level scale; higher level = more weed left vs blank control; settings: 150 g a.i./ha (penoxsulam control 250 g(a.i.)/h)
Outline: as §2

Digitaria sanguinalis [11] = assay: Herbicidal activity test for indoor post-emergence spraying on stems and leaves; design: key: grade level by weed remaining vs blank control, e.g. 5 = 10.1-15%; settings: 150 g a.i./ha, visual inspection 21 days after treatment
Outline: (§3)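 Post-emergence stem and leaf spray in an indoor test following NY/T 1155.4-2006, with weeds sown and grown in a greenhouse. Effect scored visually 21 days after treatment as graded levels, each level set by the percentage of weed remaining relative to the blank control area.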

green bristlegrass [12] = assay: as above; design: key: grade level by weed remaining vs blank control, e.g. 5 = 10.1-15%; settings: 150 g a.i./ha, visual inspection 21 days after treatment
Outline: as §3

Humulus scandens [13] = assay: as above; design: key: grade level by weed remaining vs blank control, e.g. 5 = 10.1-15%; settings: 150 g a.i./ha, visual inspection 21 days after treatment
Outline: as §3

Barnyard grass [14] = assay: as above; design: key: grade level by weed remaining vs blank control, e.g. 5 = 10.1-15%; settings: 150 g a.i./ha, visual inspection 21 days after treatment
Outline: as §3

Piemarker [15] = assay: as above; design: key: grade level by weed remaining vs blank control, e.g. 5 = 10.1-15%; settings: 150 g a.i./ha, visual inspection 21 days after treatment
Outline: as §3

Amaranthus retroflexus [16] = assay: as above; design: key: grade level by weed remaining vs blank control, e.g. 5 = 10.1-15%; settings: 150 g a.i./ha, visual inspection 21 days after treatment
Outline: as §3

[17] = 150 g(a.i.)/ha, 21 days after treatments

## COc1ccc(OC)c(C(=O)NCc2ccc(F)cc2)c1 [Compound A23]
Digitaria sanguinalis [1]
  Herbicidal Activity Digitaria sanguinalis: 1
Amaranthus retroflexus [2]
  Herbicidal Activity Amaranthus retroflexus: 2 (equivalent to 0 to 2.5% of the weed in the blank control area)
Digitaria sanguinalis [3]
  Post-emergence weed control effect, Digitaria sanguinalis: 2 (equivalent to 0 to 2.5% of the weed in the blank control area)
Green bristlegrass [4]
  Post-emergence weed control effect, Green bristlegrass: 1
Acalypha australis
  Post-emergence weed control effect, Acalypha australis: 2 (equivalent to 0 to 2.5% of the weed in the blank control area)
Solanum nigrum
  Post-emergence weed control effect, Solanum nigrum: 2 (equivalent to 0 to 2.5% of the weed in the blank control area)
Portulaca oleracea
  Post-emergence weed control effect, Portulaca oleracea: 1
Nutgrass flatsedge
  Post-emergence weed control effect, Nutgrass flatsedge: 3 (equivalent to 2.6 to 5% of the weed in the blank control area)
Barnyard grass [5]
  Post-emergence weed control effect, Barnyard grass: 2 (equivalent to 0 to 2.5% of the weed in the blank control area)
goosegrass
  Post-emergence weed control effect, Goose grass: 2 (equivalent to 0 to 2.5% of the weed in the blank control area)
Convolvulus arvensis
  Post-emergence weed control effect, Convolvulus arvensis: 1
Amaranthus retroflexus [6]
  Post-emergence weed control effect, Amaranthus retroflexus: 1
Chenopodium album
  Post-emergence weed control effect, Chenopodium album: 1
Humulus scandens [7]
  Herbicidal Activity Humulus scandens: 4 (equivalent to 5.1 to 10% of the weed in the blank control area)
Green bristlegrass [8]
  Herbicidal Activity Green bristlegrass: 1
Barnyard grass [9]
  Herbicidal Activity Barnyard grass: 1
Piemarker [10]
  Herbicidal Activity Piemarker: 2 (equivalent to 0 to 2.5% of the weed in the blank control area)
Gramineae
  Herbicidal activity 15 days after treatment Gramineae: 1
  Herbicidal activity 30 days after treatment Gramineae: 1
Broadleaf weed
  Herbicidal activity 15 days after treatment Broadleaf weed: 1
  Herbicidal activity 30 days after treatment Broadleaf weed: 1
Cyperaceae
  Herbicidal activity 15 days after treatment Cyperaceae: 1
  Herbicidal activity 30 days after treatment Cyperaceae: 1
Digitaria sanguinalis [11]
  Herbicidal Activity Digitaria sanguinalis: 1
Green bristlegrass [12]
  Herbicidal Activity Green bristlegrass: 1
Humulus scandens [13]
  Herbicidal Activity Humulus scandens: 1
Barnyard grass [14]
  Herbicidal Activity Barnyard grass: 1
Piemarker [15]
  Herbicidal Activity Piemarker: 1
Amaranthus retroflexus [16]
  Herbicidal Activity Amaranthus retroflexus: 1

## Cc1cccc(C(=O)NCc2cc(F)cc(Cl)c2)n1 [Compound B27]
Digitaria sanguinalis [1]
  Herbicidal Activity Digitaria sanguinalis: 1
Amaranthus retroflexus [2]
  Herbicidal Activity Amaranthus retroflexus: 1
Digitaria sanguinalis [3]
  Post-emergence weed control effect, Digitaria sanguinalis: 1
Digitaria sanguinalis [3]; [17]
  controlling effect on Digitaria sanguinalis: 1
Green bristlegrass [4]
  Post-emergence weed control effect, Green bristlegrass: 1
Green bristlegrass [4]; [17]
  controlling effect on green bristlegrass: 1
Acalypha australis
  Post-emergence weed control effect, Acalypha australis: 1
Acalypha australis; [17]
  controlling effect on Acalypha australis: 1
Solanum nigrum
  Post-emergence weed control effect, Solanum nigrum: 1
Solanum nigrum; [17]
  controlling effect on Solanum nigrum: 1
Portulaca oleracea
  Post-emergence weed control effect, Portulaca oleracea: 1
Portulaca oleracea; [17]
  controlling effect on Portulaca oleracea: 1
Nutgrass flatsedge
  Post-emergence weed control effect, Nutgrass flatsedge: 1
Nutgrass flatsedge; [17]
  controlling effect on nutgrass flatsedge: 1
Barnyard grass [5]
  Post-emergence weed control effect, Barnyard grass: 1
Barnyard grass [5]; [17]
  controlling effect on barnyard grass: 1
goosegrass
  Post-emergence weed control effect, Goose grass: 1
goosegrass; [17]
  controlling effect on goosegrass: 1
Convolvulus arvensis
  Post-emergence weed control effect, Convolvulus arvensis: 1
Convolvulus arvensis; [17]
  controlling effect on Convolvulus arvensis: 1
Amaranthus retroflexus [6]
  Post-emergence weed control effect, Amaranthus retroflexus: 1
Amaranthus retroflexus [6]; [17]
  controlling effect on Amaranthus retroflexus: 1
Chenopodium album
  Post-emergence weed control effect, Chenopodium album: 1
Chenopodium album; [17]
  controlling effect on Chenopodium album: 1
Humulus scandens [7]
  Herbicidal Activity Humulus scandens: 1
Green bristlegrass [8]
  Herbicidal Activity Green bristlegrass: 1
Barnyard grass [9]
  Herbicidal Activity Barnyard grass: 1
Piemarker [10]
  Herbicidal Activity Piemarker: 1
Gramineae
  Herbicidal activity 15 days after treatment Gramineae: 1
  Herbicidal activity 30 days after treatment Gramineae: 1
Broadleaf weed
  Herbicidal activity 15 days after treatment Broadleaf weed: 1
  Herbicidal activity 30 days after treatment Broadleaf weed: 1
Cyperaceae
  Herbicidal activity 15 days after treatment Cyperaceae: 1
  Herbicidal activity 30 days after treatment Cyperaceae: 1
Digitaria sanguinalis [11]
  Herbicidal Activity Digitaria sanguinalis: 1
Green bristlegrass [12]
  Herbicidal Activity Green bristlegrass: 1
Humulus scandens [13]
  Herbicidal Activity Humulus scandens: 1
Barnyard grass [14]
  Herbicidal Activity Barnyard grass: 1
Piemarker [15]
  Herbicidal Activity Piemarker: 1
Amaranthus retroflexus [16]
  Herbicidal Activity Amaranthus retroflexus: 1
